According to patent US8338426B2, “Piperazinyl derivatives useful as modulators of the neuropeptide Y2 receptor” (Janssen Pharmaceutica NV, priority 2007, dated 2012):

Experiments:
[1] = test system: panel of 50 receptors, ion channels and transporters; experiment: CEREP panel of 50 receptors, ion channels and transporters; type: binding; conditions: concentrations up to 1 μM
Protocol: The selectivity of the compound of formula (A) was further evaluated in a large variety of ion-channels, transporters and receptor-binding assays including the Y1 receptor subtype. These assays were performed by CEREP (Celles L'Evescault, France; www.cere.com<http//www.cerea.com>). Selectivity vs the Y5 receptor subtype was evaluated as described in Bonaventure, P., D. Nepomuceno, C. Mazur, B. Lord, D. A. Rudolph, J. A. Jablonowski, N. I. Carruthers and T. W. Lovenberg, J Pharmacol Exp Ther. 2004, 308, 1130.
The compound of formula (A) was assayed by binding in a panel of 50 receptors, ion channels and transporters assays (CEREP) including adenosine (A1,A2A,A3), adrenergic (α1, α2, β1), angiotensin (AT1), dopamine (D1, D2), bradykinin (B2), cholecystokinin (CCKA), galanin (GAL2), melatonin ML1), muscarinic (M1, M2, M3), neurotensin (NTS), neurokinin (NK2, NK3), NPY (Y1, Y2) opiate (m, k, d), serotonin (5-HT1A, 5-HT1B, 5-HT2A, 5-HT3, 5-HT5A, 5-HT6, 5-HT7), somatostatin, vasopressin (V1a), norepinephrine transporter, dopamine transporter and ion channels (sodium, calcium, potassium and chloride).

mouse Y2 receptor = biological target: T1, mouse Y2 receptor (Mus musculus, UniProt P97295); experiment: Neuropeptide Y2 radioligand binding assay, [125I]PYY, mouse hippocampus membranes; conditions: read-out: mY2 pKi (converted)
T1 construct: membranes from rat or mouse hippocampus were prepared; from tissue; host or cells: mouse hippocampus membranes
T1 sequence (P97295 1-381): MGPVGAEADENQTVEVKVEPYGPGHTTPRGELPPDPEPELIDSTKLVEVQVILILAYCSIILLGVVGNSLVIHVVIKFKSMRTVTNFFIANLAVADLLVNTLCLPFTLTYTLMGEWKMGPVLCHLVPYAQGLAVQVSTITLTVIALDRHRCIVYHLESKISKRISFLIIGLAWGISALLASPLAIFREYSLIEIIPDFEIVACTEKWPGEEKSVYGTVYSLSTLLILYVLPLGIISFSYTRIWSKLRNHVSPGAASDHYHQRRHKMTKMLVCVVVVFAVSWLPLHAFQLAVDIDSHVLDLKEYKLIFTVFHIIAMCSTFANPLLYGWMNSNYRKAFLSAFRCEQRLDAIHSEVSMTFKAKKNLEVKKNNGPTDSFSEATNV
Protocol: Radioligand binding assays for the human and rat/mouse Y2 receptor were performed as described in Bonaventure, P., D. Nepomuceno, C. Mazur, B. Lord, D. A. Rudolph, J. A. Jablonowski, N. I. Carruthers and T. W. Lovenberg, J Pharmacol Exp Ther. 2004, 308, 1130.
KAN-Ts endogenously expressing Y2 receptors were used, for the rat and mouse Y2 receptor, membranes from rat or mouse hippocampus were prepared. Membranes were incubated with [^125I]PYY (80 pM) in the presence or absence of test compound for 1 h at rt. The reaction was stopped by filtration through GF/C filter plates pre-soaked in 0.3% polyethylenimine and subsequently washed with Tris-HCl, 50 mM, 5 mM EDTA buffer. Plates were dried for 1 h in a 55° C. oven, scintillation fluid was added and the radioactivity was counted in a Packard TopCount. Specific binding to the NPY receptor subtypes was determined by radioactivity that was bound in the presence of 1 μM NPY.
Apparent Ki values were calculated as K=IC50/(1+C/KD), where C is concentration of the radioligand and pKi=−log Ki. Data presented below are expressed as mean±S.E.M.

MTP = MTP (Homo sapiens, UniProt P55157); experiment: MTP assay (triglyceride transfer between vesicles); type: biochemical; conditions: read-out: MTP pIC50 (converted)
Sequence of MTP (P55157 19-894, species assumed): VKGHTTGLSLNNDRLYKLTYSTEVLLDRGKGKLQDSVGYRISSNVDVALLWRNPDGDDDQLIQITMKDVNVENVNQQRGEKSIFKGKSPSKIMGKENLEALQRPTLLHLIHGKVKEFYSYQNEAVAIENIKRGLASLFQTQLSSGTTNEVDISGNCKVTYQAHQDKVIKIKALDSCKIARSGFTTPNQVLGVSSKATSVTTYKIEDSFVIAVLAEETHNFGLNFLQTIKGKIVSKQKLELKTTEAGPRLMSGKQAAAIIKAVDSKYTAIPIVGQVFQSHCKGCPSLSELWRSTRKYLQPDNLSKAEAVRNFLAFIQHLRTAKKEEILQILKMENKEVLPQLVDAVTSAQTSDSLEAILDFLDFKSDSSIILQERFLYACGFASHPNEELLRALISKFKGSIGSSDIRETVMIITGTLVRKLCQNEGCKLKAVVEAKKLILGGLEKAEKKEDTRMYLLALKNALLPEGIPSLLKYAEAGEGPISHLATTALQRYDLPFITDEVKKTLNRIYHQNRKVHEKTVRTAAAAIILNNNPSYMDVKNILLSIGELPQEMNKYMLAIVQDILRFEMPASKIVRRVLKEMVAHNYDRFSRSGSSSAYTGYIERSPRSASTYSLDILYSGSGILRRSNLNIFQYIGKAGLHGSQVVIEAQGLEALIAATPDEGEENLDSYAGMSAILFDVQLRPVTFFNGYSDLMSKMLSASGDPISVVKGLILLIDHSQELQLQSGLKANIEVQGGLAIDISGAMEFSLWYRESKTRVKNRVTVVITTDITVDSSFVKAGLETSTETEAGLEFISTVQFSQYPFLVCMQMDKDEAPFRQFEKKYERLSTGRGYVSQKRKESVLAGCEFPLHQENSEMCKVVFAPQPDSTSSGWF
Sequence of MTP (P07237 18-508 partner, species assumed): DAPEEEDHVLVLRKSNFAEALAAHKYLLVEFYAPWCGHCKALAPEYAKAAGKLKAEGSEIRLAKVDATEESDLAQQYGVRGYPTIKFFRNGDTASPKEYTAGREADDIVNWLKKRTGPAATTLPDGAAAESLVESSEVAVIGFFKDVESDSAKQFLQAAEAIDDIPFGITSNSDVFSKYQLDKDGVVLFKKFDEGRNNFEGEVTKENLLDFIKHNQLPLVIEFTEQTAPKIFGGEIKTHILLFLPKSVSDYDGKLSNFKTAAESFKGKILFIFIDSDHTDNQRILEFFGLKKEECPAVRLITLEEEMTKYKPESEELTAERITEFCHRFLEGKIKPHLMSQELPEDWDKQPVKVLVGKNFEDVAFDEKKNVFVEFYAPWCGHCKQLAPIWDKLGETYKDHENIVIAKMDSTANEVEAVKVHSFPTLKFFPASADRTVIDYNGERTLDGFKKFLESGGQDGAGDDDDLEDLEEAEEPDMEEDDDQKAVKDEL
Protocol: MTP activity was measured using an assay similar to one described by J. R. Wetterau and D. B. Zilversmit in Chemistry and Physics of Lipids (1985) 38, 205-222.
In order to prepare the donor and acceptor vesicles, the appropriate lipids in chloroform were put into a glass test tube and dried under a stream of nitrogen. A buffer containing 15 mM Tris-HCl (pH 7.5), 1 mM ethylenediamine tetra-acetic acid, 40 mM NaCl, 0.02% NaN3 (assay buffer) was added to the dried lipid. The mixture was vortexed briefly and the lipids were then allowed to hydrate for 20 minutes on ice. Vesicles were then prepared by bath sonication (using a Branson 2200 device) at room temperature for at most 15 minutes. Butylated hydroxytoluene was included in all vesicle preparations at a concentration of 0.1%. The lipid transfer assay mixture contained donor vesicles (40 nmole phosphatidylcholine, 7.5 mole % cardiolipin and 0.25 mole % glycerol tri[1-^14C]-oleate), acceptor vesicles (240 nmol phosphatidylcholine) and 5 mg bovine serum albumin in a total volume of 675 μl in a 1.5 ml microcentrifuge tube. Test compound was added dissolved in dimethylsulfoxide (0.13% final concentration). After 5 minutes of pre-incubation at 37° C., the reaction was started by the addition of MTP in 100 μl of a dialysis buffer. The reaction was stopped by the addition of 400 μl […] (DEAE)-52 cellulose (Sephadex) pre-equilibrated in 15 mM Tris-HCl (pH 7.5), 1 mM ethylenediamine tetra-acetic acid and 0.02% NaN3 (1:1 volume/volume). The mixture was agitated for 4 minutes and centrifuged for 2 minutes at maximum speed in an Eppendorf centrifuge (4° C.) to pellet the DEAE-52-bound donor vesicles. An aliquot of the supernatant containing the acceptor liposomes was counted and the [^14C]-counts were used to calculate the percent triglyceride transfer from donor to acceptor vesicles.
Representative compounds of the present invention were measured for binding against the MTP receptor, as described above, with results as listed in Table 2 below.

[2] = test system: amphetamine-induced hyperactivity; experiment: Amphetamine-induced hyperactivity in c57bl6/j mice; type: in vivo; conditions: 3 and 10 mg/kg i.p., amphetamine 3 mg/kg s.c.
Protocol: To the extent that ethanol-induced hyperactivity is mediated, at least partially, by the dopaminergic system, additional experiments were designed to evaluate whether the compound of formula (A) attenuates the hyperactivity induced by amphetamine, an indirect dopamine agonist.
Locomotor activity was measured with a Hamilton Kinder motor monitor infrared beam apparatus equipped with a SmartFrame cage rack throughout which basic movements were recorded. These experiments were conducted using a between subject design. Sessions started when 8-10-week old c57bl6/j mice were located in the test cages and they lasted for 180 min. Amphetamine (3 mg/kg, s.c.) was administered 60 min after the beginning of the session. The compound of formula (A) (1,3,10 mg/kg, i.p.) or vehicle was administered 15 min prior to amphetamine and locomotor activity was measured for an additional 120 min. The average of basic movements recorded for 60 min after amphetamine was calculated for each animal. Data were analyzed with one-way analysis of variance (ANOVA) using Graph Pad.

CCN(CC)C(=O)C(c1ccccc1)N1CCN(c2ccc(NC(=O)c3ccccc3-c3cccnc3)cc2F)CC1 (racemic) [Cmpd (A), N-{4-[4-(Diethylcarbamoyl-phenyl-methyl)-piperazin-1-yl]-3-fluoro-phenyl}-2-pyridin-3-yl-benzamide]
inhibition against each receptor of the panel (except NPY Y2) [1]: less than 50%
Ki (mouse Y2 receptor): 4.47 nM
IC50 (MTP): 794 nM
effect on amphetamine-induced hyperactivity [2]: blocked amphetamine-induced hyperactivity
